Source: the supplement of paper PMC10307832

Assays:
Experiment in all cases: relative viability (nuclei count vs DMSO), 5 days (fraction); higher = more cells survive
AZD6482 + Alpelisib = compound: Cc1cc([C@@H](C)Nc2ccccc2C(=O)O)c2nc(N3CCOCC3)cc(=O)n2c1 [AZD6482] + Cc1nc(NC(=O)N2CCC[C@H]2C(N)=O)sc1-c1ccnc(C(C)(C)C(F)(F)F)c1 [Alpelisib] (partner 2 µM)
Summary of the method: (§1)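 One day after seeding in 1536-well plates, lung cancer cell lines were dosed by pin tool. Dosing was either single-drug or a fixed anchor-drug dose plus five library-drug doses (not always all listed) in √10 steps. After 5 days, nuclei were stained in one fix-and-stain step and counted on 4× images, and relative viability is the nuclei count of treated wells over that of vehicle wells, given as the median of duplicate plates.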

AZD6482 + Tozasertib = compound: Cc1cc([C@@H](C)Nc2ccccc2C(=O)O)c2nc(N3CCOCC3)cc(=O)n2c1 [AZD6482] + Cc1cc(Nc2cc(N3CCN(C)CC3)nc(Sc3ccc(NC(=O)C4CC4)cc3)n2)n[nH]1 [Tozasertib] (partner 0.1 µM)
Summary of the method: as §1

AZD6482 + Palbociclib = compound: Cc1cc([C@@H](C)Nc2ccccc2C(=O)O)c2nc(N3CCOCC3)cc(=O)n2c1 [AZD6482] + CC(=O)c1c(C)c2cnc(Nc3ccc(N4CCNCC4)cn3)nc2n(C2CCCC2)c1=O [Palbociclib] (partner 0.5 µM)
Summary of the method: as §1

AZD6482 + Phenformin = compound: Cc1cc([C@@H](C)Nc2ccccc2C(=O)O)c2nc(N3CCOCC3)cc(=O)n2c1 [AZD6482] + N=C(N)NC(=N)NCCc1ccccc1 [Phenformin] (partner 250 µM)
Summary of the method: as §1

Row | Cell Line | relative viability (AZD6482 + Alpelisib; first compound 0.08 µM) | relative viability (AZD6482 + Alpelisib; first compound 0.253 µM) | relative viability (AZD6482 + Alpelisib; first compound 0.8 µM) | relative viability (AZD6482 + Alpelisib; first compound 2.53 µM) | relative viability (AZD6482 + Alpelisib; first compound 8 µM) | relative viability (AZD6482 + Tozasertib; first compound 0.08 µM) | relative viability (AZD6482 + Tozasertib; first compound 0.253 µM) | relative viability (AZD6482 + Tozasertib; first compound 0.8 µM) | relative viability (AZD6482 + Tozasertib; first compound 2.53 µM) | relative viability (AZD6482 + Tozasertib; first compound 8 µM) | relative viability (AZD6482 + Palbociclib; first compound 0.08 µM) | relative viability (AZD6482 + Palbociclib; first compound 0.253 µM) | relative viability (AZD6482 + Palbociclib; first compound 0.8 µM) | relative viability (AZD6482 + Palbociclib; first compound 2.53 µM) | relative viability (AZD6482 + Palbociclib; first compound 8 µM) | relative viability (AZD6482 + Phenformin; first compound 0.08 µM) | relative viability (AZD6482 + Phenformin; first compound 0.253 µM) | relative viability (AZD6482 + Phenformin; first compound 0.8 µM) | relative viability (AZD6482 + Phenformin; first compound 2.53 µM) | relative viability (AZD6482 + Phenformin; first compound 8 µM)
1 | 201T | 0.908 | 0.809 | 0.842 | 0.714 | 0.848 | 0.904 | 0.889 | 0.88 | 0.766 | 0.875 | 0.351 | 0.354 | 0.309 | 0.326 | 0.347 | 0.436 | 0.433 | 0.496 | 0.308 | 0.314
2 | A549 | 0.585 | 0.552 | 0.43 | 0.275 | 0.361 | – | – | – | – | – | – | – | – | – | – | 0.154 | 0.14 | 0.222 | 0.158 | 0.153
3 | A-427 | 1.08 | 0.967 | 1.04 | 0.952 | 1.06 | 0.219 | 0.214 | 0.188 | – | 0.209 | 0.462 | 0.528 | 0.495 | 0.502 | 0.553 | 0.345 | 0.232 | 0.319 | – | 0.225
4 | ABC-1 | 0.741 | 0.819 | 1.05 | 0.702 | 0.826 | 0.168 | 0.158 | 0.155 | 0.201 | 0.216 | 0.603 | 0.79 | 0.664 | 0.662 | 0.544 | 0.212 | 0.237 | 0.283 | 0.229 | 0.205
5 | BEN | 0.866 | 0.886 | 1.11 | 0.828 | 0.947 | 0.463 | 0.526 | 0.472 | 0.493 | 0.495 | 0.442 | 0.452 | 0.446 | 0.449 | 0.466 | 0.349 | 0.281 | 0.24 | 0.277 | 0.182
6 | CAL-12T | 0.902 | 0.661 | 0.901 | 0.535 | 0.721 | 0.303 | 0.338 | 0.37 | 0.228 | 0.218 | 0.416 | 0.314 | 0.343 | 0.518 | 0.286 | 0.615 | 0.517 | 0.568 | 0.336 | 0.418
7 | COR-L23 | 0.461 | 0.737 | 0.854 | 0.494 | 0.76 | 0.183 | 0.192 | 0.162 | 0.153 | 0.171 | 0.223 | 0.28 | 0.305 | 0.338 | 0.224 | 0.412 | 0.445 | 0.455 | 0.343 | 0.373
8 | COR-L 105 | 0.771 | 0.837 | 0.784 | 0.517 | 0.728 | 0.362 | 0.348 | 0.352 | 0.336 | 0.344 | 0.419 | 0.434 | 0.434 | 0.492 | 0.376 | 0.515 | 0.443 | 0.446 | 0.409 | 0.299
9 | Calu-6 | 0.812 | 0.847 | 0.873 | 0.75 | 0.926 | – | – | – | – | – | – | – | – | – | – | – | – | – | – | –
10 | ChaGo-K-1 | – | – | – | – | – | 0.206 | 0.22 | 0.219 | 0.2 | 0.206 | 0.948 | 0.901 | 0.926 | 0.919 | 0.934 | 0.54 | 0.397 | 0.446 | 0.48 | 0.416
11 | EBC-1 | 0.32 | 0.346 | 0.27 | 0.177 | 0.299 | – | – | – | – | – | – | – | – | – | – | – | – | – | – | –
12 | EKVX | 0.516 | 0.46 | 0.591 | 0.336 | 0.581 | 0.337 | 0.296 | 0.344 | 0.362 | 0.202 | 0.283 | 0.325 | 0.342 | 0.279 | 0.298 | 0.212 | 0.22 | 0.233 | 0.171 | 0.208
13 | EMC-BAC-2 | 0.639 | 0.624 | 0.619 | 0.571 | 0.617 | 0.285 | 0.288 | 0.274 | 0.287 | 0.272 | 0.494 | 0.491 | 0.518 | 0.46 | 0.429 | 0.489 | 0.445 | 0.493 | 0.352 | 0.44
14 | EPLC-272H | 0.593 | – | 0.554 | 0.436 | 0.577 | 0.185 | 0.111 | 0.211 | 0.277 | 0.157 | 0.297 | 0.292 | 0.328 | 0.332 | 0.244 | 0.311 | 0.241 | 0.343 | 0.24 | 0.154
15 | H3255 | 0.531 | 0.54 | 0.614 | 0.335 | 0.496 | 0.607 | 0.595 | 0.42 | 0.442 | 0.594 | 0.324 | 0.33 | 0.306 | 0.339 | 0.339 | 0.356 | 0.333 | 0.386 | 0.343 | 0.34
16 | HARA | 0.459 | 0.762 | 0.849 | – | 0.708 | 0.212 | 0.108 | 0.0865 | 0.111 | 0.0791 | 0.182 | 0.199 | 0.368 | 0.247 | 0.171 | 0.376 | 0.395 | 0.486 | 0.399 | 0.168
17 | HCC-15 | 0.856 | 0.797 | 0.861 | 0.736 | 0.772 | 0.344 | 0.332 | 0.377 | 0.37 | 0.293 | 0.652 | 0.631 | 0.77 | 0.676 | 0.633 | 0.499 | 0.462 | 0.457 | 0.349 | 0.406
18 | HCC-44 | 0.546 | 0.596 | 0.649 | 0.505 | 0.435 | 0.945 | 0.895 | 0.88 | 0.957 | 0.829 | 0.858 | 0.988 | 1.04 | 1.05 | 1.26 | 0.255 | 0.14 | 0.189 | 0.169 | 0.167
